Reference: US20250136586A1, “Substituted 7-(Pyrimidin-4-yl)Quinolin-4(1H)-One Compounds as Cyclin Dependent Kinase Inhibitors” (BeiGene, Ltd., priority 2022, published 2025)

Tests used:
[1] = biological target: CDK4/Cyclin D1 (Homo sapiens (Human), UniProt P11802); assay: TR-FRET kinase inhibition assay, CDK4/Cyclin D1; assay type: biochemical; settings: 1 mM ATP, 0.15 μM Rb (Ser780)-biotin substrate, read-out: CDK4D1 IC50
In short: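 Kinase was preincubated with compound for 60 min at room temperature, then reacted with ATP and Rb (Ser780)-biotin substrate for 120 min. IC50 came from a four-parameter logistic fit.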

[2] = biological target: CDK6/Cyclin D3 (Homo sapiens (Human), UniProt Q00534); assay: TR-FRET kinase inhibition assay, CDK6/Cyclin D3; assay type: biochemical; settings: 1 mM ATP, 0.15 μM Rb (Ser780)-biotin substrate, read-out: CDK6D3 IC50
In short: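 Kinase preincubated 60 min at room temperature with 0–10 μM compound; reaction started with 1 mM ATP and 0.15 μM Rb (Ser780)-biotin, run 120 min at room temperature in HEPES pH 7.0, 50 mM MgCl2. pRb detected by TR-FRET (665/620 nm ratio); IC50 from four-parameter logistic fit.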

Sequence of CDK6/Cyclin D3 (Q00534 whole entry): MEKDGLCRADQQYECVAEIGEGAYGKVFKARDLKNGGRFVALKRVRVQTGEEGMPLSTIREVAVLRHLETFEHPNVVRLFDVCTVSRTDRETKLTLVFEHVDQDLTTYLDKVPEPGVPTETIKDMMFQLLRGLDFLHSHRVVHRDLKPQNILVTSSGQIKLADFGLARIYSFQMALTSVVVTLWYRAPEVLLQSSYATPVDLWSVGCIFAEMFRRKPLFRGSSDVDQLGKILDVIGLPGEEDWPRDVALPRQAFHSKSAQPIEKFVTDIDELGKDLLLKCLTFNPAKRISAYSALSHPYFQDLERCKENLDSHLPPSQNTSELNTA
Sequence of CDK6/Cyclin D3 (P30281 whole entry partner): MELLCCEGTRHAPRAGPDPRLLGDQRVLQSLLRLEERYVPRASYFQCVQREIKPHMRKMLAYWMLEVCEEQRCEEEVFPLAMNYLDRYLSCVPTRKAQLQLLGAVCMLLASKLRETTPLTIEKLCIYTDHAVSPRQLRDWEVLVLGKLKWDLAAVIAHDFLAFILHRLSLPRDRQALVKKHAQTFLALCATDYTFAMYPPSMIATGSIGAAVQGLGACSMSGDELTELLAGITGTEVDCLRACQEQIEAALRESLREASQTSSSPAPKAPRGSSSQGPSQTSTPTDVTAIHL
Sequence of CDK4/Cyclin D1 (P11802 whole entry): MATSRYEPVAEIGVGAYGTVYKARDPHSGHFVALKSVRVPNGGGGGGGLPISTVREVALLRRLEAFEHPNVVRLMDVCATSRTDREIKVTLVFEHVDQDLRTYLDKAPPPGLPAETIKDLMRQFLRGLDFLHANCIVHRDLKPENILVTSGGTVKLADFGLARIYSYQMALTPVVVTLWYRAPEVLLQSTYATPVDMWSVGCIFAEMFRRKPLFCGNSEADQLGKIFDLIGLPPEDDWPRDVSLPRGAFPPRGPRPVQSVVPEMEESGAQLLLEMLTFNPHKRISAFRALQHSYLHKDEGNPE
Sequence of CDK4/Cyclin D1 (P24385 whole entry partner): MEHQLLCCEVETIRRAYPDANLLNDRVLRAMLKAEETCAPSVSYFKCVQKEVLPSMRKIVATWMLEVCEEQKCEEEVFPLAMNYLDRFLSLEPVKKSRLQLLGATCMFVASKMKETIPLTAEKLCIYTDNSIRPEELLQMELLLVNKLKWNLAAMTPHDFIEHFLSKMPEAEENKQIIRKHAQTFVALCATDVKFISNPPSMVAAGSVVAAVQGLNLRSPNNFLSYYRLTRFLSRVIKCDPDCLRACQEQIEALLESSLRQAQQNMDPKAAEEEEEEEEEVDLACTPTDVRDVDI

SMILES	IC50 [1] [nM]	IC50 [2] [nM]
Cc1c(C)n(C(C)C)c2cc(-c3nc(N[C@@H]4CCOC[C@H]4O)ncc3F)ccc2c1=O [Example 16, 7-(5-fluoro-2-(((3S,4R)-3-hydroxytetrahydro-2H-pyran-4-yl)amino)pyrimidin-4-yl)-1-isopropyl-2,3-dimethylquinolin-4(1H)-one]	8.3	257
CC(C)n1ccc(=O)c2ccc(-c3nc(N[C@@H]4CCOC[C@H]4O)ncc3F)cc21 [Example 3, 7-(5-fluoro-2-(((3S,4R)-3-hydroxytetrahydro-2H-pyran-4-yl)amino)pyrimidin-4-yl)-1-isopropylquinolin-4(1H)-one]	78	1250
CC(C)n1c(CN2CCC(C)(C)CC2)cc(=O)c2ccc(-c3nc(N[C@@H]4CCOC[C@H]4O)ncc3F)cc21 [Example 97, 2-((4,4-dimethylpiperidin-1-yl)methyl)-7-(5-fluoro-2-(((3S,4R)-3-hydroxytetrahydro-2H-pyran-4-yl)amino)pyrimidin-4-yl)-1-isopropylquinolin-4(1H)-one]	64	2050
Cc1c(CNC(C)C)n(C(C)C)c2cc(-c3nc(N[C@@H]4CCOC[C@H]4O)ncc3F)ccc2c1=O [Example 110, 7-(5-fluoro-2-(((3S,4R)-3-hydroxytetrahydro-2H-pyran-4-yl)amino)pyrimidin-4-yl)-1-isopropyl-2-((isopropylamino)methyl)-3-methylquinolin-4(1H)-one]	9.3	567
CC(C)n1c(CN2[C@H](C)COC[C@H]2C)cc(=O)c2ccc(-c3nc(N[C@@H]4CCOC[C@H]4O)ncc3F)cc21 [Example 106, 2-(((3R,5R)-3,5-dimethylmorpholino)methyl)-7-(5-fluoro-2-(((3S,4R)-3-hydroxytetrahydro-2H-pyran-4-yl)amino)pyrimidin-4-yl)-1-isopropylquinolin-4(1H)-one]	4.8	298
CC(C)n1c(C(=O)NCC(C)(C)O)cc(=O)c2ccc(-c3nc(N[C@@H]4CCOC[C@H]4O)ncc3Cl)cc21 [Example 22, 7-(5-chloro-2-(((3S,4R)-3-hydroxytetrahydro-2H-pyran-4-yl)amino)pyrimidin-4-yl)-N-(2-hydroxy-2-methylpropyl)-1-isopropyl-4-oxo-1,4-dihydroquinoline-2-carboxamide]	49	931
CC(C)n1c(CN2CCC(F)CC2)cc(=O)c2ccc(-c3nc(N[C@@H]4CCOC[C@H]4O)ncc3F)cc21 [Example 99, 7-(5-fluoro-2-(((3S,4R)-3-hydroxytetrahydro-2H-pyran-4-yl)amino)pyrimidin-4-yl)-2-((4-fluoropiperidin-1-yl)methyl)-1-isopropylquinolin-4(1H)-one]	17	561
Cc1c(CO)n(C(C)C)c2cc(-c3nc(N[C@@H]4CCOC[C@H]4O)ncc3F)ccc2c1=O [Example 119, 7-(5-fluoro-2-(((3S,4R)-3-hydroxytetrahydro-2H-pyran-4-yl)amino)pyrimidin-4-yl)-2-(hydroxymethyl)-1-isopropyl-3-methylquinolin-4(1H)-one]	9.1	273
CC(C)n1c(CN2CCC(O)CC2)cc(=O)c2ccc(-c3nc(N[C@@H]4CCOC[C@H]4O)ncc3F)cc21 [Example 39, 7-(5-fluoro-2-(((3S,4R)-3-hydroxytetrahydro-2H-pyran-4-yl)amino)pyrimidin-4-yl)-2-((4-hydroxypiperidin-1-yl)methyl)-1-isopropylquinolin-4(1H)-one]	24	744
CC(=O)c1cn(C(C)C)c2cc(-c3nc(N[C@@H]4CCOC[C@H]4O)ncc3F)ccc2c1=O [Example 4, 3-acetyl-7-(5-fluoro-2-(((3S,4R)-3-hydroxytetrahydro-2H-pyran-4-yl)amino)pyrimidin-4-yl)-1-isopropylquinolin-4(1H)-one]	251	979

Other lines, results leading:

IC50 [1] [nM]	IC50 [2] [nM]	SMILES
15	330	Cc1c(CN2CC3CCC(C2)O3)n(C(C)C)c2cc(-c3nc(N[C@@H]4CCOC[C@H]4O)ncc3F)ccc2c1=O [Example 102, 2-((8-oxa-3-azabicyclo[3.2.1]octan-3-yl)methyl)-7-(5-fluoro-2-(((3S,4R)-3-hydroxytetrahydro-2H-pyran-4-yl)amino)pyrimidin-4-yl)-1-isopropyl-3-methylquinolin-4(1H)-one]
101	808	CC(C)n1ccc(=O)c2c(Cl)cc(-c3nc(N[C@@H]4CCOC[C@H]4O)ncc3Cl)cc21 [Example 1, 5-chloro-7-(5-chloro-2-(((3S,4R)-3-hydroxytetrahydro-2H-pyran-4-yl)amino)pyrimidin-4-yl)-1-isopropylquinolin-4(1H)-one]
16	352	Cc1c(CN[C@H]2C[C@H](F)C2)n(C(C)C)c2cc(-c3nc(N[C@@H]4CCOC[C@H]4O)ncc3F)ccc2c1=O [Example 111, 7-(5-fluoro-2-(((3S,4R)-3-hydroxytetrahydro-2H-pyran-4-yl)amino)pyrimidin-4-yl)-2-((((1r,3R)-3-fluorocyclobutyl)amino)methyl)-1-isopropyl-3-methylquinolin-4(1H)-one]
19	760	CC(C)n1c(CN2CCCC2)cc(=O)c2ccc(-c3nc(N[C@@H]4CCOC[C@H]4O)ncc3F)cc21 [Example 100, 7-(5-fluoro-2-(((3S,4R)-3-hydroxytetrahydro-2H-pyran-4-yl)amino)pyrimidin-4-yl)-1-isopropyl-2-(pyrrolidin-1-ylmethyl)quinolin-4(1H)-one]
162	1780	COc1cn(C(C)C)c2cc(-c3nc(N[C@@H]4CCOC[C@H]4O)ncc3F)ccc2c1=O [Example 8, 7-(5-fluoro-2-(((3S,4R)-3-hydroxytetrahydro-2H-pyran-4-yl)amino)pyrimidin-4-yl)-1-isopropyl-3-methoxyquinolin-4(11H)-one]
40	640	CC(C)n1c(CN2CC[C@@H](F)C2)cc(=O)c2cc(F)c(-c3nc(N[C@@H]4CCOC[C@H]4O)ncc3F)cc21 [Example 114, 6-fluoro-7-(5-fluoro-2-(((3S,4R)-3-hydroxytetrahydro-2H-pyran-4-yl)amino)pyrimidin-4-yl)-2-(((R)-3-fluoropyrrolidin-1-yl)methyl)-1-isopropylquinolin-4(1H)-one]
21	273	CC(C)n1c(CNc2ccc(F)cc2)cc(=O)c2ccc(-c3nc(N[C@@H]4CCOC[C@H]4O)ncc3F)cc21 [Example 96, 7-(5-fluoro-2-(((3S,4R)-3-hydroxytetrahydro-2H-pyran-4-yl)amino)pyrimidin-4-yl)-2-(((4-fluorophenyl)amino)methyl)-1-isopropylquinolin-4(1H)-one]
4.3	129	Cc1c(CN2CCC[C@H](O)C2)n(C(C)C)c2cc(-c3nc(N[C@@H]4CCOC[C@H]4O)ncc3F)ccc2c1=O [Example 123, 7-(5-fluoro-2-(((3S,4R)-3-hydroxytetrahydro-2H-pyran-4-yl)amino)pyrimidin-4-yl)-2-(((S)-3-hydroxypiperidin-1-yl)methyl)-1-isopropyl-3-methylquinolin-4(1H)-one]
27	1210	CC(C)n1c(CN2CCO[C@H](C)C2)cc(=O)c2ccc(-c3nc(N[C@@H]4CCOC[C@H]4O)ncc3F)cc21 [Example 18, 7-(5-fluoro-2-(((3S,4R)-3-hydroxytetrahydro-2H-pyran-4-yl)amino)pyrimidin-4-yl)-1-isopropyl-2-(((R)-2-methylmorpholino)methyl)quinolin-4(1H)-one]
16	688	CC(=O)NCc1cc(=O)c2ccc(-c3nc(N[C@@H]4CCOC[C@H]4O)ncc3F)cc2n1C(C)C [Example 50, N-((7-(5-fluoro-2-(((3S,4R)-3-hydroxytetrahydro-2H-pyran-4-yl)amino)pyrimidin-4-yl)-1-isopropyl-4-oxo-1,4-dihydroquinolin-2-yl)methyl)acetamide]
30	780	CC(C)n1c(CN2CC(O)C2)cc(=O)c2ccc(-c3nc(N[C@@H]4CCOC[C@H]4O)ncc3F)cc21 [Example 30, 7-(5-fluoro-2-(((3S,4R)-3-hydroxytetrahydro-2H-pyran-4-yl)amino)pyrimidin-4-yl)-2-((3-hydroxyazetidin-1-yl)methyl)-1-isopropylquinolin-4(1H)-one]
6.2	211	Cc1c(CNC2CC2)n(C(C)C)c2cc(-c3nc(N[C@@H]4CCOC[C@H]4O)ncc3F)ccc2c1=O [Example 109, 2-((cyclopropylamino)methyl)-7-(5-fluoro-2-(((3S,4R)-3-hydroxytetrahydro-2H-pyran-4-yl)amino)pyrimidin-4-yl)-1-isopropyl-3-methylquinolin-4(1H)-one]
6.8	170	CC(C)n1c(CN2CC[C@@H](F)[C@H](O)C2)cc(=O)c2ccc(-c3nc(N[C@@H]4CCOC[C@H]4O)ncc3F)cc21 [Example 84, 7-(5-fluoro-2-(((3S,4R)-3-hydroxytetrahydro-2H-pyran-4-yl)amino)pyrimidin-4-yl)-2-(((3R,4R)-4-fluoro-3-hydroxypiperidin-1-yl)methyl)-1-isopropylquinolin-4(1H)-one]
25	1300	CC(C)n1c(CN2CC3CC2C3)cc(=O)c2ccc(-c3nc(N[C@@H]4CCOC[C@H]4O)ncc3F)cc21 [Example 43, 2-((2-azabicyclo[2.1.1]hexan-2-yl)methyl)-7-(5-fluoro-2-(((3S,4R)-3-hydroxytetrahydro-2H-pyran-4-yl)amino)pyrimidin-4-yl)-1-isopropylquinolin-4(1H)-one]
